Data taken from article PMC6720019 (Pharmaceutical Biology, 2019).

What was measured:
Assay type in all cases: in vitro ADME
Details in all cases: 100 μM KF, pooled HLMs
CYP2D6 = target: T1, CYP2D6 (Homo sapiens, UniProt P10635); assay: CYP2D6 inhibition in pooled human liver microsomes (dextromethorphan O-demethylation)
T1 construct: effects of KF on eight major CYP isoforms in human liver microsomes (HLMs); from tissue; host or cells: human liver microsomes
Procedure: (§1) All incubations were performed in triplicate, and the mean values were utilized. The typical incubation systems contained 100 mM potassium phosphate buffer (pH 7.4), NADPH generating system (1 mM NADP^+, 10 mM glucose-6-phosphate, 1 U/mL of glucose-6-phosphate dehydrogenase, and 4 mM MgCl2), the appropriate concentration of HLM, a corresponding probe substrate and KF (or positive inhibitor for different probe reactions) in a final volume of 200 μL.
(§2) The concentration of KF was 100 μM according literatures (Lang et al. [2016]; Liu et al. [2017]; Zhang et al. [2019]), and the positive inhibitor concentrations were as follows: 10 μM furafylline for CYP1A2, 1 μM ketoconazole for CYP3A4, 10 μM tranylcypromine for CYP2A6, 50 μM clomethiazole for CYP2E1, 10 μM quinidine for CYP2D6, 10 μM sulfaphenazole for CYP2C9, 50 μM tranylcypromine for CYP2C19, 5 μM montelukast for CYP2C8. Probe substrates, positive inhibitors (except for dextromethorphan and quinidine which were dissolved in water) and KF were dissolved in methanol, with a final concentration of 1% (v/v), and 1% neat methanol was added to the incubations without inhibitor. […] The instrument used in this study were Agilent 1260 series instrument with DAD and FLD detector, and the quantitative assay for the corresponding metabolites was performed as previously reported (Lang et al. [2016]; Zhang et al. 2016). […]

CYP2A6 = target: T2, CYP2A6 (Homo sapiens, UniProt P11509); assay: CYP2A6 inhibition in pooled human liver microsomes (coumarin 7-hydroxylation)
T2 construct: effects of KF on eight major CYP isoforms in human liver microsomes (HLMs); from tissue; host or cells: human liver microsomes
T2 sequence (P11509 1-494): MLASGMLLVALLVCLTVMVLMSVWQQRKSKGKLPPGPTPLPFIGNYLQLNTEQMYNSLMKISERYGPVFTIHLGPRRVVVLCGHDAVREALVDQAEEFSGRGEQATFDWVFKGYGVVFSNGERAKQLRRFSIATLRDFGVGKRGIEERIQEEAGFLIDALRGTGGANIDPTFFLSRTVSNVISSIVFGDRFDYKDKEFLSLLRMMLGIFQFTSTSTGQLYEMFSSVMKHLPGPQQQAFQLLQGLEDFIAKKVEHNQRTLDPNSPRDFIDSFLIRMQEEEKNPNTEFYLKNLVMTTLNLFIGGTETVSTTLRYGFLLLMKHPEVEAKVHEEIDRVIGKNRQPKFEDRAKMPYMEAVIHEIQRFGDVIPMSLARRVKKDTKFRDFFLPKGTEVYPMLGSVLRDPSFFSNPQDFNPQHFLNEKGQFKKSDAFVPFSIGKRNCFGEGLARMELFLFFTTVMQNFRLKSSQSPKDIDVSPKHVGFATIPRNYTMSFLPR
Procedure: as §1, §2

CYP2E1 = target: T3, CYP2E1 (Homo sapiens, UniProt P05181); assay: CYP2E1 inhibition in pooled human liver microsomes (chlorzoxazone 6-hydroxylation)
T3 construct: effects of KF on eight major CYP isoforms in human liver microsomes (HLMs); from tissue; host or cells: human liver microsomes
T3 sequence (P05181 whole entry, canonical isoform): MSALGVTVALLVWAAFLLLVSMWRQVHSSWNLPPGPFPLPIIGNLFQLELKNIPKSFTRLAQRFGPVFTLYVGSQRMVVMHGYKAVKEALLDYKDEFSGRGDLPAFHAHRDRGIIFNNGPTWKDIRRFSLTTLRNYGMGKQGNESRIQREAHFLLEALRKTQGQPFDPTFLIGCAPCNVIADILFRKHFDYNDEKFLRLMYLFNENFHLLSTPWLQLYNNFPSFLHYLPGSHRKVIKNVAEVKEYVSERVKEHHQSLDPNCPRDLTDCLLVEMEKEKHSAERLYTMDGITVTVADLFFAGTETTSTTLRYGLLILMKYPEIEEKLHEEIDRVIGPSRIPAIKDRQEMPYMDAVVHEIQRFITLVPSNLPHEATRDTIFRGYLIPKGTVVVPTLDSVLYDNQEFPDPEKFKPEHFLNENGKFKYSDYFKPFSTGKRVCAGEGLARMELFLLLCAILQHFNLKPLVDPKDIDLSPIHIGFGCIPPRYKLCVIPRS
Procedure: as §1, §2

CYP2C19 = target: T4, CYP2C19 (Homo sapiens, UniProt P33261); assay: CYP2C19 inhibition in pooled human liver microsomes (S-mephenytoin 4-hydroxylation)
T4 construct: effects of KF on eight major CYP isoforms in human liver microsomes (HLMs); from tissue; host or cells: human liver microsomes
T4 sequence (P33261 whole entry, canonical isoform): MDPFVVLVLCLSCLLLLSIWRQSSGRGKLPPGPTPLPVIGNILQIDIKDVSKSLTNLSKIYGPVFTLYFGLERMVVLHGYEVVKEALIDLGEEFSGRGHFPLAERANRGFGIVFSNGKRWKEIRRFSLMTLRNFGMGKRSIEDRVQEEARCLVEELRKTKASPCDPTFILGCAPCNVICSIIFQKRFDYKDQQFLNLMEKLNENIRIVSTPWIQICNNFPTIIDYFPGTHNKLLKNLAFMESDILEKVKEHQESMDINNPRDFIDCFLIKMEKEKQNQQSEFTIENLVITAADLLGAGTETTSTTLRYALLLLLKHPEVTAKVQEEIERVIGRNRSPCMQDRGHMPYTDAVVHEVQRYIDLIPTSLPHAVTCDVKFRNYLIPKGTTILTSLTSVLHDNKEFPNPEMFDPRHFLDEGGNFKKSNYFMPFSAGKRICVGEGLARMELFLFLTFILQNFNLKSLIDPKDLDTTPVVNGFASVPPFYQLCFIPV
Procedure: as §1, §2

CYP2C8 = target: T5, CYP2C8 (Homo sapiens, UniProt P10632); assay: CYP2C8 inhibition in pooled human liver microsomes (paclitaxel 6α-hydroxylation)
T5 construct: effects of KF on eight major CYP isoforms in human liver microsomes (HLMs); from tissue; host or cells: human liver microsomes
T5 sequence (P10632 1-490): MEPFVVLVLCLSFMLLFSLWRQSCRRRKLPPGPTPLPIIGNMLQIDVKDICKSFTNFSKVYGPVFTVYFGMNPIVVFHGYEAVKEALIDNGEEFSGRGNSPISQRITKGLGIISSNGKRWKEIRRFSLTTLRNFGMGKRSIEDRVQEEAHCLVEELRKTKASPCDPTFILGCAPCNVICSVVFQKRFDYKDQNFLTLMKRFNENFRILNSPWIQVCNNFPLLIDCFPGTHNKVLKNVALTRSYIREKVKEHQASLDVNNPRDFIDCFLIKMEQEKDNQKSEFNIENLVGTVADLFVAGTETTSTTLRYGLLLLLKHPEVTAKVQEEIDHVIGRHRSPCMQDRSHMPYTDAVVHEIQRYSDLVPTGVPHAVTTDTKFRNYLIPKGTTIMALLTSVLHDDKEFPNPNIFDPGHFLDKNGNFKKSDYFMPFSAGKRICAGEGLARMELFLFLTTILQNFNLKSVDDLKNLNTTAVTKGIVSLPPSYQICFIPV
Procedure: as §1, §2

T1 sequence (P10635 whole entry, canonical isoform): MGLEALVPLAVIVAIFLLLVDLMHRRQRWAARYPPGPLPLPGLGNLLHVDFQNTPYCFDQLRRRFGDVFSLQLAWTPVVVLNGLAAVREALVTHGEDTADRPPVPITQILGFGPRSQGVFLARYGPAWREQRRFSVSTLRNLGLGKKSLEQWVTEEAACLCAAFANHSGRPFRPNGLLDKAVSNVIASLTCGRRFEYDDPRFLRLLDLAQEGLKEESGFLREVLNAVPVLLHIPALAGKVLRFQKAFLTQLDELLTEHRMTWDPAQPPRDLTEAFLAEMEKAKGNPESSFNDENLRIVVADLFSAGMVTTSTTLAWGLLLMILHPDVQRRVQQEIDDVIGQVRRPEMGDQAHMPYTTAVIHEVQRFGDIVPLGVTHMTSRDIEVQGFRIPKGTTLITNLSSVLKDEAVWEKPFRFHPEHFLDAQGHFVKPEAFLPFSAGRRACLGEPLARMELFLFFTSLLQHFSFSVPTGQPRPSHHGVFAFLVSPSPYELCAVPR

C[C@@H]1O[C@@H](Oc2cc(O)c3c(=O)c(O[C@@H]4O[C@@H](C)[C@H](O)[C@@H](O)[C@H]4O)c(-c4ccc(O)cc4)oc3c2)[C@H](O)[C@H](O)[C@H]1O [KF, Kaempferitrin]
did not inhibit: Inhibition of CYP2D6 activity (CYP2D6) | Inhibition of CYP2A6 activity (CYP2A6) | Inhibition of CYP2E1 activity (CYP2E1) | Inhibition of CYP2C19 activity (CYP2C19) | Inhibition of CYP2C8 activity (CYP2C8)
